Patent US8569327B2, “Phenanthroindolizidine derivative and NFκB inhibitor containing same as active ingredient” (Kabushiki Kaisha Yakult Honsha, priority 2008, dated 2013)

Columns and labels:
[1] = system: mice transplanted with mouse fibrosarcoma Meth A cells; test: Animal toxicity test; assay type: in vivo; settings: intravenous days 1, 5, 9, observed three weeks
Description: Also, the toxicity of known phenanthroindolizidine alkaloid compounds, namely (12aS,13S)-6,7-dimethoxy-9,10,11,12,12a,13-hexahydro-9a-aza-cyclopenta[b]triphenylene-3,13-diol (known compound 1; refer to WO01/023384) and (12aS,13S)-3,6,7-trimethoxy-9,10,11,12,12a,13-hexahydro-9a-aza-cyclopenta[b]triphenylene-13-ol (known compound 2; refer to Planta Med., 2002, 68: 186-188), was simultaneously studied. To a control group, a physiological saline solution, a solvent, was administered. As a result, as shown in the following Tables 35 and 36, all the mice survived in a group administered with the compound of the present invention.

[2] = system: human colon cancer HT-29 cells; test: Inhibitory action on the proliferation of HT-29 cells; assay type: cell-based; settings: 96 hours, TetraColor ONE; for IC50: Homo sapiens, HT-29
Description: (§1) The action of the phenanthroindolizidine alkaloid compound of the present invention on the proliferation of human colon cancer SW480 cells, HT-29 cells, and human non-small cell lung cancer A549 cells was studied. The SW480 cells were suspended in a 10% FBS/RPMI1640 and then seeded in a 96-well microplate, followed by culturing in 5% CO2 at 37° C. (2000 cells/well). The A549 cells and the HT-29 cells were each suspended in a DMEM medium containing 10% FBS, 100 U/mL penicillin, and 100 μg/mL streptomycin (10% FBS/DMEM) and a DMEM F-12 HAM medium containing 10% FBS, 100 U/mL penicillin, and 100 μg/mL streptomycin (10% FBS/DMEM F12 HAM), and then seeded in 96-well microplates, followed by culturing in 5% CO2 at 37° C. (1000 cells/well). After an overnight culture, the compound of the present invention was added, followed by further culturing for 48 hours (SW480 cells) and 96 hours (A549 cells and HT-29 cells). After culturing, the number of viable cells was counted using TetraColor ONE (Seikagaku Corporation) in accordance with the attached operating procedure. The results were expressed as the concentration of a test compound needed for 50% inhibition of the proliferation of the cells (IC50).

SV40 promoter = SV40 promoter activity, luciferase assay in SW480/SV40-Luc cells; assay type: cell-based, human; settings: for SV40 promoter inhibitory activity IC50: SW480/SV40-Luc cells, luciferase; for IC50: Homo sapiens, SW480, read-out: SV40 promoter inhibitory activity IC50
Description: (§2) The action of the phenanthroindolizidine alkaloid compound of the present invention on the NFκB activity was studied using a luciferase assay. Human colon cancer SW480 cells were transfected with pNFκB-Luc Plasmid (Stratagene), which is a reporter vector in which a five-time tandem repeat of the NFκB responsive element (NRE) is integrated into the upstream of the luciferase gene, using Lipofectamine 2000 (Invitrogen Corporation) in accordance with the attached operating procedure. Subsequently, the cells were cultured in an RPMI1640 medium containing 10% FBS, 100 U/mL penicillin, 100 μg/mL streptomycin, and 0.5 mg/mL G418 to produce SW480 cells having the luciferase gene, the expression of which is regulated by NRE, stably introduced therein (SW480/NRE-Luc cells). Likewise, SW480 cells were transfected with pGL3-Control Vector (Promega Corporation), which is a reporter vector in which the SV40 promoter is integrated into the upstream of the luciferase gene, to produce SW480 cells having the luciferase gene, the expression of which is regulated by the SV40 promoter, stably introduced therein (SW480/SV40-Luc cells). The SW480/NRE-Luc cells or the SW480/SV40-Luc cells were suspended in an RPMI1640 medium containing 10% FBS, 100 U/mL penicillin, and 100 μg/mL streptomycin (10% FBS/RPMI1640), and then seeded in a 96-well microplate, followed by culturing under conditions of 5% CO2 and at 37° C. (5000 cells/well). After an overnight culture, the compound of the present invention was added, followed by culturing for one hour. Further, 50 ng/mL TNFα (Sigma-Aldrich Corporation) was added, followed by culturing for four hours. Subsequently, a Steady-Glo Luciferase Assay reagent (Promega Corporation) was added, and the luminescent intensity was detected by SpectraMax M5e (Molecular Devices, Inc.) to measure the intracellular luciferase activity. It is to be noted that the action of the compound of the present invention on the NFκB activity or the SV40 promoter activity was shown as IC50 values (the concentration of a test compound needed for 50% inhibition of the induction of the luciferase expression).

[3] = system: human colon cancer SW480 cells; test: Inhibitory action on the proliferation of SW480 cells; assay type: cell-based; settings: 48 hours, TetraColor ONE; for IC50: Homo sapiens, SW480
Description: as §1

NFκB = test: Inhibitory action on the NFκB activity, luciferase assay in SW480/NRE-Luc cells; assay type: cell-based, human; settings: for NFκB inhibitory activity IC50: SW480/NRE-Luc cells, compound 1 h then 50 ng/mL TNFα 4 h, luciferase; for IC50: Homo sapiens, SW480, read-out: NFκB inhibitory activity IC50
Description: as §2

[4] = system: human non-small cell lung cancer A549 cells; test: Inhibitory action on the proliferation of A549 cells; assay type: cell-based; settings: 96 hours, TetraColor ONE; for IC50: Homo sapiens, A549
Description: as §1

Row | SMILES | Mortality rate ([1]; total dose 25 mg/kg) | Mortality rate ([1]; total dose 50 mg/kg, 50 mg/kg) | Mortality rate ([1]; total dose 50 mg/kg, listed as known compound 1, 50 mg/kg) | HT-29 proliferation inhibitory action IC50 [2] | SV40 promoter inhibitory activity IC50 (SV40 promoter) | SW480 proliferation inhibitory action IC50 [3] | NFκB inhibitory activity IC50 (NFκB) | Mortality rate ([1]; total dose 50 mg/kg) | A549 proliferation inhibitory action IC50 [4] | IC50 [2] | IC50 (SV40 promoter) | IC50 [3] | IC50 (NFκB) | IC50 [4] | Mortality rate ([1]; total dose 25 mg/kg, 25 mg/kg) | Mortality rate ([1]; total dose 25 mg/kg, listed as known compound 2, 25 mg/kg) | Mortality rate ([1]; total dose 50 mg/kg, listed as known compound 2, 50 mg/kg)
1 | COc1cc2c3c(c4ccc(O)cc4c2cc1OC)[C@H](O)[C@@H]1CCCN1C3 [Known compound 1, (12aS,13S)-6,7-dimethoxy-9,10,11,12,12a,13-hexahydro-9a-aza-cyclopenta[b]triphenylene-3,13-diol, reference compound] | 0/5 | 5/5 | all the mice died |  |  |  |  |  |  |  |  |  |  |  |  |  | 
2 | COc1cc2c3c(c4ccc(OC(C)=O)cc4c2cc1OC)C(F)[C@@H]1CCCN1C3.Cl (stereo partly drawn) [Compound 14, acetic acid(S)-13-fluoro-6,7-dimethoxy-9,10,11,12,12a,13-hexahydro-9a-aza-cyclopenta[b]triphenylene-3-yl ester hydrochloride] | 0/5 |  |  | 0.62 ng/mL | >100 ng/mL | 2.1 ng/mL | 1.7 ng/mL | 0/5 | 0.23 ng/mL |  |  |  |  |  |  |  | 
3 | COc1cc2c3c(c4ccc(F)cc4c2cc1OC)[C@@H](O)[C@H]1CCCN1C3.Cl [Compound 6, (12aR,13R)-3-fluoro-6,7-dimethoxy-9,10,11,12,12a,13-hexahydro-9a-aza-cyclopenta[b]triphenylene-13-ol hydrochloride] | 0/5 |  |  |  |  |  |  | 0/5 |  | 38.8 ng/mL | > 10000 ng/mL | 567 ng/mL | 166 ng/mL | 34.1 ng/mL |  |  | 
4 | COc1cc2c3c(c4ccc(OC(C)=O)cc4c2cc1OC)C[C@@H]1CCCN1C3.Cl [Compound 34, acetic acid(S)-6,7-dimethoxy-9,10,11,12,12a,13-hexahydro-9a-aza-cyclopenta[b]triphenylene-3-yl ester hydrochloride] | 0/5 |  |  | 0.52 ng/mL | >100 ng/mL | 0.042 ng/mL | 0.026 ng/mL | 0/5 | 0.18 ng/mL |  |  |  |  |  |  |  | 
5 | COc1cc2c3c(c4ccc(OC(C)=O)cc4c2cc1OC)[C@H](OC(C)=O)[C@@H]1CCCN1C3.Cl [Compound 8, acetic acid(12aS,13S)-3-acetoxy-6,7-dimethoxy-9,10,11,12,12a,13-hexahydro-9a-aza-cyclopenta[b]triphenylene-13-yl ester hydrochloride] | 0/5 |  |  | 5.8 ng/mL | >1000 ng/mL | 17.0 ng/mL | 63.2 ng/mL | 0/5 | 1.5 ng/mL |  |  |  |  |  |  |  | 
6 | COc1cc2c3c(c4ccc(OC(=O)c5cccnc5)cc4c2cc1OC)C[C@@H]1CCCN1C3.Cl [Compound 39, nicotinic acid(S)-6,7-dimethoxy-9,10,11,12,12a,13-hexahydro-9a-aza-cyclopenta[b]triphenylene-3-yl ester hydrochloride] | 0/5 |  |  | 2.6 ng/mL | >100 ng/mL | 1.3 ng/mL | 2.2 ng/mL | 0/5 | 0.97 ng/mL |  |  |  |  |  |  |  | 
7 | COC(=O)CCC(=O)Oc1ccc2c3c(c4cc(OC)c(OC)cc4c2c1)CN1CCC[C@H]1C3.Cl [Compound 36, succinic acid(S)-6,7-dimethoxy-9,10,11,12,12a,13-hexahydro-9a-aza-cyclopenta[b]triphenylene-3-yl ester methyl ester hydrochloride] | 0/5 |  |  | 2.3 ng/mL | >100 ng/mL | 0.96 ng/mL | 0.64 ng/mL | 0/5 | 0.82 ng/mL |  |  |  |  |  |  |  | 
8 | COc1cc2c3c(c4ccc(OC(C)=O)cc4c2cc1OC)[C@H](O)[C@@H]1CCCN1C3.Cl [Compound 7, acetic acid(12aS,13S)-13-hydroxy-6,7-dimethoxy-9,10,11,12,12a,13-hexahydro-9a-aza-cyclopenta[b]triphenylene-3-yl ester hydrochloride] | 0/5 |  |  | 0.080 ng/mL | >100 ng/mL | 0.41 ng/mL | 0.25 ng/mL | 0/5 | 0.63 ng/mL |  |  |  |  |  |  |  | 
9 | COC(=O)Oc1ccc2c3c(c4cc(OC)c(OC)cc4c2c1)CN1CCC[C@H]1C3.Cl [Compound 37, carbonic acid(S)-6,7-dimethoxy-9,10,11,12,12a,13-hexahydro-9a-aza-cyclopenta[b]triphenylene-3-yl ester methyl ester hydrochloride] | 0/5 |  |  | 1.6 ng/mL | >100 ng/mL | 0.68 ng/mL | 2.9 ng/mL | 0/5 | 0.65 ng/mL |  |  |  |  |  |  |  | 
10 | COc1ccc2c3c(c4cc(OC)c(OC)cc4c2c1)CN1CCC[C@H]1[C@H]3O [Known Compound 2, (12aS,13S)-3,6,7-trimethoxy-9,10,11,12,12a,13-hexahydro-9a-aza-cyclopenta[b]triphenylene-13-ol, reference compound] |  | 5/5 |  |  |  |  |  |  |  |  |  |  |  |  | 2/5 | some of the mice also died | all the mice died
11 | COc1cc2c3c(c4ccccc4c2cc1OC)C[C@@H]1CCCN1C3.CS(=O)(=O)O [Compound 53, (S)-6,7-dimethoxy-9,10,11,12,12a,13-hexahydro-9a-aza-cyclopenta[b]triphenylene methanesulfonate] |  |  |  |  |  |  |  |  |  | 58.5 ng/mL | > 10000 ng/mL | 32.9 ng/mL | 19.1 ng/mL | 28.9 ng/mL |  |  | 
